Test results taken from ChEMBL document CHEMBL1136417, “Siphonols A-E: novel nitric oxide inhibitors from Orthosiphon stamineus of Indonesia” (Bioorg Med Chem Lett, 2003).
pIC50: −log10 of the molar value. Each block holds one compound with its values, some of them ahead of it.

Tested on: J774
Test: Inhibitory activity against nitric oxide production in lipopolysaccharide (LPS)-activated macrophage -like J774.1 cell
Type: functional, cell-based, Mus musculus

Compound: C=C[C@@]1(C)C[C@@H](OC(=O)c2ccccc2)C2[C@]3(COC(C)=O)C(C[C@@H](O)[C@@]2(O)C1=O)C(C)(C)[C@H](OC(C)=O)[C@H](OC(C)=O)[C@@H]3OC(=O)c1ccccc1 (stereo partly drawn)
pIC50 (Mus musculus, J774): 4.33

Compound: C[C@@H]1C[C@H]2[C@@H]3CCC4=CC(=O)C=C[C@]4(C)[C@@]3(F)[C@@H](O)C[C@]2(C)[C@@]1(O)C(=O)CO [DEXAMETHASONE]
pIC50 (Mus musculus, J774): 3.77

Compound: POLYMYXIN B
pIC50 (j774): 4.56

Other lines, results leading:

pIC50 (Mus musculus, J774): 4.64
Compound: CC(=O)O[C@H]1[C@@H](OC(C)=O)C(C)(C)C2C[C@@H](OC(C)=O)[C@@]3(O)C(=O)[C@@](C)(C=O)C[C@@H](OC(=O)c4ccccc4)C3[C@@]2(CO)[C@H]1OC(=O)c1ccccc1 (stereo partly drawn)

pIC50 (Mus musculus, J774): 4.76
Compound: C=C[C@@]1(C)C[C@@H](OC(=O)c2ccccc2)C2[C@]3(CO)C(C[C@@H](O)[C@@]2(O)C1=O)C(C)(C)[C@H](OC(C)=O)[C@H](OC(C)=O)[C@@H]3OC(=O)c1ccccc1 (stereo partly drawn)

pIC50 (Mus musculus, J774): 4.64
Compound: C=C[C@@]1(C)C[C@@H](OC(=O)c2ccccc2)C2[C@]3(CO)C(C[C@@H](OC(C)=O)[C@@]2(O)C1=O)C(C)(C)[C@H](OC(C)=O)[C@H](O)[C@@H]3OC(=O)c1ccccc1 (stereo partly drawn)

pIC50 (Mus musculus, J774): 4.97
Compound: C=C[C@@]1(C)C[C@@H](OC(=O)c2ccccc2)C2[C@]3(CO)C(C[C@@H](OC(C)=O)[C@@]2(O)C1=O)C(C)(C)[C@H](OC(C)=O)[C@H](OC(C)=O)[C@@H]3OC(=O)c1ccccc1 (stereo partly drawn)

pIC50 (Mus musculus, J774): 4.59
Compound: CNC(=N)NCCC[C@H](N)C(=O)O [TILARGININE]
